{
  "source": "patent US20200129476A1",
  "about": "“PARP Inhibitor in Combination with a Glucocorticoid and/or Ascorbic Acid and/or a Protein Growth Factor for the Treatment of Impaired Wound Healing” (AKRIBES BIOMEDICAL GMBH, priority 2017, published 2020)",
  "key": {"IL-1ß": {"tested_on": "IL-1ß", "experiment": "IL-1ß secretion by HDF in the presence of wound exudate (ELISA)", "type": "cell-based, human", "details": "FIG. 22; WE #43 and #78 used with veliparib", "procedure": "Primary human dermal fibroblasts (HDF) were purchased from CELLnTEC, Bern. They were routinely grown in Dulbecco's modified Eagle's medium (DMEM) containing 10% FCS, 2 mM glutamine, and 100 U/ml penicillin/100 μg/ml streptomycin. Media, antibiotics, and glutamine were bought from Lonza. The cells were used at passage 5-15. Cells were trypsinized and seeded at 5000 cells/well in 200 μl into the inner wells of 96-well plates. The outer wells were loaded with sterile water. The cells were allowed to adhere overnight and then incubated for 72 hours at 37° C. under the following conditions: graded compound concentrations or 20 ng/ml PDGF-BB (Tonbo Biosciences) in the absence or presence of different dilutions of sterile-filtered WE in medium. For control samples, 200p1 medium was added instead of specific stimuli. Alternatively, the cells were seeded into 384-well plates at 2500 cells/well directly together with test compounds or growth factors and WE or medium in a total volume of […].\nAt the end of the 72-hour incubation period, supernatants were removed for the determination of IL-1ß, and the cells were fixed with 4% paraformaldehyde (Morphisto) for 15 minutes at room temperature and washed 3 times with PBS. A control plate was fixed after the overnight adherence of the cells (day 1) to determine the starting cell number.\nIL-1ß levels were determined with a commercial ELISA kit. The amount of IL-1ß contained in the wound exudate added to the cells was subtracted from the total IL-ß in the supernatants in order to determine the cytokine secreted by the cells."}, "macrophages": {"tested_on": "macrophages", "experiment": "Fibroblast-macrophage coculture with wound exudate: live cells in FACS CD45-gate", "type": "cell-based, human", "details": "WE #78", "procedure": "CD14^+ monocytes, isolated from PBMC of healthy donors by magnetic bead separation were incubated either alone or in the presence of primary human dermal fibroblasts (CelINTec) or fibroblast-derived matrices (FDM). FDM had been generated from primary human dermal fibroblasts by a 3-week incubation with the growth supplements vitamin C or insulin and EGF (vitamin C: 2-phospho-L-ascorbic acid trisodium salt, 100 μg/ml; human EGF, 5 ng/ml; human insulin, 5 μg/ml). Alternatively, fibroblast monolayer cultures can be used as well. […]\nSupernatants were harvested and frozen for cytokine determination by ELISA, and cells were harvested and subjected to FACS analysis, gating on the monocyte population. Geometric means or mean fluorescence intensities (MFI) were used to quantify surface marker expression.\nCells were harvested and resuspended in FACS buffer (PBS containing 2% FCS). […] Co-staining with CD45 eFluor (#506 69-0459-42) was used to distinguish macrophages from primary human fibroblasts when analyzed from co-cultures. After washing cells with FACS buffer, they were fixed with 1% paraformaldehyde in PBS and stored at 4° C. in the dark until data were acquired on a Gallios flow cytometer from Beckman Coulter and analyzed with the Kaluza analysis software 1.3."}, "IL-1α": {"tested_on": "IL-1α", "experiment": "Fibroblast-macrophage coculture with wound exudate: IL-1α", "type": "cell-based, human", "details": "WE #78; veliparib 10 μM, talazoparib 0.1 μM", "procedure": "CD14^+ monocytes, isolated from PBMC of healthy donors by magnetic bead separation were incubated either alone or in the presence of primary human dermal fibroblasts (CelINTec) or fibroblast-derived matrices (FDM). FDM had been generated from primary human dermal fibroblasts by a 3-week incubation with the growth supplements vitamin C or insulin and EGF (vitamin C: 2-phospho-L-ascorbic acid trisodium salt, 100 μg/ml; human EGF, 5 ng/ml; human insulin, 5 μg/ml). Alternatively, fibroblast monolayer cultures can be used as well. After 4 days to a week to allow for macrophage differentiation in the presence or absence of M-CSF (25 ng/ml), the cultures were stimulated overnight with graded concentrations of test compounds in the absence or presence of various dilutions of sterile-filtered WE. IFN-g (50 ng/ml), LPS (100 ng/ml) and IL-4 (25 ng/ml) or combinations thereof served as controls for M1 and M2 macrophage induction. For negative control samples, medium was added instead of specific stimuli. WE were added to the culture medium for overnight stimulation at dilutions ranging from 1:25 to 1:100.\nSupernatants were harvested and frozen for cytokine determination by ELISA, and cells were harvested and subjected to FACS analysis, gating on the monocyte population. Geometric means or mean fluorescence intensities (MFI) were used to quantify surface marker expression. […]"}, "[1]": {"tested_on": "primary human dermal fibroblasts (HDF)", "experiment": "Fibroblast-derived matrix (FDM) formation assay (3D), with or without wound exudate", "type": "cell-based", "procedure": "HDF cells were seeded at 5000 cells/well on day −3 into 96-well tissue culture plates (1250 cells/well for 384-well plates), which had been pre-coated for 1 hour at 37° C. with 0.2% gelatin solution (Sigma). When the cells reached confluence (=day 0), a matrix promoting supplement (vitamin C: 2-phospho-L-ascorbic acid trisodium salt, 100 μg/ml; Sigma) was added together with test samples containing PDGF-BB, TGF-ß1 or graded concentrations of compounds −/+WE as described for the HDF proliferation assay. After 4 days, medium was replaced by fresh vitamin C- and stimulus- as well as compound-containing medium, maintaining the conditions initiated on day 0. TGF-ß1 and PDGF-BB were included as positive controls to promote FDM formation and cell growth, respectively. After a total incubation time of 8 days, FDM production was measured in fixed cultures via SRB staining and evaluated as described above. In some cases, the experiment was stopped and evaluated already on day 4.\nLow molecular weight compounds (see list in Table 1) were dissolved in DMSO (Bioreagent for cell culture, Sigma) at 10 mM or 100 mM and diluted at least 1:1000 in medium for cellular assays (final DMSO concentration ≤0.1%). Compounds were typically tested in half-logarithmic dilution series (1:3.33), starting at 10 μM or 100 μM as the highest compound concentration.\nCells were incubated with compounds for 72 hours in proliferation assays and up to 8 days for FDM assay (refreshed after 4 days). When compounds were tested for their effect on WE stimulation, the incubation of cells with compounds was started and ended simultaneously with WE-incubation."}},
  "note": "Entries after “also recorded” stand apart in the source; their conditions may differ.",
  "data": [
    {"compound": "C[C@]1(c2nc3c(C(N)=O)cccc3[nH]2)CCCN1", "note": "[veliparib, 2-((2R)-2-methylpyrrolidin-2-yl)-1H-benzimidazole-4-carboxamide]", "values": [
      {"measurement": "IL-1ß secretion induced by wound exudate", "setting": "IL-1ß", "result": "reducing IL-1ß secretion"},
      {"measurement": "percentage of live cells in the FACS CD45-gate, veliparib with dexamethasone", "setting": "macrophages; veliparib 10 μM + dexamethasone 10 nM", "result": "further increased"},
      {"measurement": "percentage of live cells in the FACS CD45-gate", "setting": "macrophages; veliparib 10 μM or dexamethasone 10 nM alone", "result": "increased"},
      {"measurement": "IL-1α induced by wound exudate", "setting": "IL-1α", "result": "reduced"},
      {"measurement": "FDM formation, veliparib combined with glucocorticoid", "setting": "[1]; WE #49, non-diabetic, non-immunosuppressed patient (FIG. 8)", "result": "could be enhanced with glucocorticoids in another non-diabetic and non-immunosuppressed patient, but not vice versa; also recorded: could be enhanced with glucocorticoids, but not vice versa"},
      {"measurement": "FDM formation, veliparib combined with glucocorticoid", "setting": "[1]; WE #78, patient with diabetes, immunosuppression after kidney transplantation (FIG. 7)", "result": "enhances the effect of glucocorticoids"},
      {"measurement": "FDM formation, combination of veliparib with dexamethasone versus each alone", "setting": "[1]; WE present, microscopy (FIG. 6)", "result": "even superior to each substance alone"},
      {"measurement": "fibroblast-derived matrix (FDM) formation", "setting": "[1]; presence of WE #78 (FIG. 9)", "result": "strong positive effect"},
      {"measurement": "fibroblast-derived matrix (FDM/ECM) formation", "setting": "[1]; presence of wound exudate, WE not specified (FIG. 6: microscopy)", "result": "“cleaned up” WE-induced fibroblast matrix inhibition"}
    ]}
  ]
}
